According to patent US20170119892A1, “REFILLABLE DRUG DELIVERY DEVICES AND METHODS OF USE THEREOF” (President and Fellows of Harvard College, priority 2014, published 2017):

Columns and labels:
[1] = system: Alginate conjugated to (T)20 oligonucleotides, ionically crosslinked with calcium to form a gel; test: Binding of fluorescently-labeled oligonucleotides to DNA-conjugated calcium-alginate gels in vitro; settings: phosphate buffer with 1 mM calcium chloride
[2] = system: MDA-MB-231 xenograft tumors; test: Xenograft tumor study with drug refilling; format: in vivo, J:Nu mice; settings: 120 ug doxorubicin per animal IV weekly
Procedure: Tumors were created by injecting 10^6 MDA-MB-231 cells (American Type Culture Collection, VA) combined with Matrigel (BD Biosciences, CA) to a total volume of 200 μL (100 μL PBS and 100 μL Matrigel) into the hind limbs of 8 week old J:Nu (Foxn1^nu/Foxn1^nu) mice (Jackson Labs, ME). 35 days following tumor inoculation tumors were injected with alginate gels. 20 mg/mL alginate conjugated to DNA (thioT-SH or unconjugated) was mixed with doxorubicin (1.6 mg drug per mL of gel), then crosslinked with 4% wt/v CaSO4 (1.22 M) and then 50 μL of gel were injected into tumors with a 23-gauge needle. 2, 3, 4, and 5 weeks after initial tumoral gel injection, mice were injected retro-orbitally with 100 μL 0.5% DNA-conjugated alginate carrying doxorubicin (5% oxidized alginate, thioA-SH, Dye-750, 160 ug Dox-hydrazide=120 μg Dox). Throughout the study, tumor area was measured twice per week with digital calipers in two dimensions and the product of the two dimensional values was used to approximate tumor area. Mice were sacrificed on day 49. […]
Immunocompromised mice bearing MDA-MB-231 xenograft tumors were injected intra-tumor with phosphorothioate DNA-conjugated alginate gels releasing doxorubicin (80 ug per animal) or bolus doxorubicin in PBS. […] The ability of targeted therapy to reduce tumor size was assessed by monitoring the change in tumor size in the three days following each IV administration.

[3] = Alginate circulation time in the blood; format: in vivo, C57/B6 mice
Procedure: C57/B6 mice were injected retro-orbitally with 100 μL 0.5% fluorescent alginate (unoxidized alginate, Dye-750). Mice were shaved on the front and back and imaged with an IVIS Spectrum in vivo imager (ex: 745, em: 820) over 30 days. Shaving was repeated before every image collection. Fluorescence in the blood was measured through quantification of fluorescence in the snout area.
Efficient blood-based refilling of drug payloads relies on sufficient circulation lifetimes that allow payloads to encounter and bind to the primary device. The circulation time of alginate (285 KDa, 44 nm hydrodynamic radius (Rh)) conjugated to a near-IR probe (FIG. 6A) was analyzed following intravenous (IV) administration to mice. […] With a long circulation time, alginate can serve as an efficient intra-vascular drug carrier with the capability of extravasating and interacting with the primary drug delivery device.

(A)20: fluorescently-labeled AAAAAAAAAAAAAAAAAAAA-FAM oligonucleotide, SEQ ID NO: 6
binding of fluorescently-labeled oligonucleotides to gel surface [1]: bound to the gel surface in a sequence-specific manner

COc1cccc2c1C(=O)c1c(O)c3c(c(O)c1C2=O)C[C@@](O)(C(=O)CO)C[C@@H]3O[C@H]1C[C@H](N)[C@H](O)[C@H](C)O1 [doxorubicin]
change in tumor size in the three days following each IV administration [2]: continued to grow

alginate
circulatory half-life ([3]; IV administration to mice): about seven
remained in circulation ([3]; IV administration to mice, blood fluorescence measured at snout): at least 14 days
organ accumulation (imaging of individual organs) ([3]; two days after injection): accumulation in the lungs, liver, spleen, and to a lesser extent in the kidneys

(T)20: fluorescently-labeled TTTTTTTTTTTTTTTTTTTT-FAM oligonucleotide, SEQ ID NO: 5
binding of fluorescently-labeled oligonucleotides to gel surface [1]: little binding
